Laboratory results taken from US20260356817A1, “AMINOPYRIMIDINE AND AMINOTRIAZINE DERIVATIVES AS MYC PROTEIN MODULATORS” (Sanford Burnham Prebys Medical Discovery Institute, priority 2022, published 2026).
Where two headings read alike, the source gives them in different places.

Test system: Myc
Test: Myc inhibition assay: Myc expression per cell by anti-Myc immunofluorescence, high-content imaging
Type: cell-based, human (patient-derived medulloblastoma xenograft cells)
Conditions: medulloblastoma PDX cells, 4 h
In short: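 IC50 comes from high-content imaging of per-cell Myc immunostaining (DAPI-labelled nuclei) after 4 h compound exposure. Cells were freshly dissociated medulloblastoma PDX tumours, never passaged in vitro, grown in NSG mouse cerebellum, plated serum-free and recovered overnight before treatment.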

[1] = Table 1, read-out: IC50 (Myc inhibition)
[2] = Table 2, read-out: MYC Inhibition IC50

Row | IC50 [1] [nM] | IC50 [2] [nM] | SMILES
1 | 200 to 1000 | 200 to 1000 | COc1ncc(-c2ccnc(Nc3cccc(C(F)(F)F)c3)n2)s1 [Compound 143, 4-(2-methoxythiazol-5-yl)-N-(3-(trifluoromethyl)phenyl)pyrimidin-2-amine]
2 | < 200 | < 200 | c1cc(Nc2nccc(-c3ccc4[nH]cnc4c3)n2)cc(-c2ccn[nH]2)c1 [Compound 261, N-(3-(1H-pyrazol-5-yl)phenyl)-4-(1H-benzo[d]imidazol-5-yl)pyrimidin-2-amine]
3 | 1000 to 10000 | 1000 to 10000 | COc1cc(-c2ncnc(Nc3ccccc3)n2)ccn1 [Compound 240, 4-(2-methoxypyridin-4-yl)-N-phenyl-1,3,5-triazin-2-amine]
4 | 1000 to 10000 | 1000 to 10000 | N#Cc1cccc(Nc2nccc(-c3ccc4[nH]cnc4c3)n2)c1 [Compound 94, 3-((4-(1H-benzo[d]imidazol-5-yl)pyrimidin-2-yl)amino)benzonitrile]
5 | 200 to 1000 | 200 to 1000 | CCOC(=O)CCc1cccc(Nc2nccc(-c3ccc4nc[nH]c4c3)n2)c1 [Compound 272, ethyl 3-(3-((4-(1H-benzo[d]imidazol-6-yl)pyrimidin-2-yl)amino)phenyl)propanoate]
6 | 1000 to 10000 | 1000 to 10000 | FC(F)(F)c1cccc(Nc2nccc(-c3ccc4cc[nH]c4c3)n2)c1 [Compound 172, 4-(1H-indol-6-yl)-N-(3-(trifluoromethyl)phenyl)pyrimidin-2-amine]
7 | 1000 to 10000 | 1000 to 10000 | O=C(O)c1cccc(Nc2nccc(-c3ccc4[nH]cnc4c3)n2)c1 [Compound 28, 3-((4-(1H-benzo[d]imidazol-5-yl)pyrimidin-2-yl)amino)benzoic acid]
8 | 200 to 1000 | 200 to 1000 | Cn1cc(Nc2nccc(-c3ccc4[nH]cnc4c3)n2)cn1 [Compound 77, 4-(1H-benzo[d]imidazol-5-yl)-N-(1-methyl-1H-pyrazol-4-yl)pyrimidin-2-amine]
9 | 10000 to 100000 | 10000 to 100000 | COc1ccnc(-c2ccnc(Nc3ccccc3)n2)c1 [Compound 217, 4-(4-methoxypyridin-2-yl)-N-phenylpyrimidin-2-amine]
10 | 200 to 1000 | 200 to 1000 | Cc1cccc(Nc2nccc(-c3ccc4[nH]cnc4c3)n2)c1 [Compound 40, 4-(1H-benzo[d]imidazol-5-yl)-N-(m-tolyl)pyrimidin-2-amine]
11 | 1000 to 10000 | 1000 to 10000 | Cn1nccc1CNc1nccc(-c2ccc3[nH]cnc3c2)n1 [Compound 82, 4-(1H-benzo[d]imidazol-5-yl)-N-((1-methyl-1H-pyrazol-5-yl)methyl)pyrimidin-2-amine]
12 | 1000 to 10000 | 1000 to 10000 | CC(C)(C)c1ccc(Nc2nccc(-c3ccc4[nH]cnc4c3)n2)cc1 [Compound 72, 4-(1H-benzo[d]imidazol-5-yl)-N-(4-(tert-butyl)phenyl)pyrimidin-2-amine]
13 | 200 to 1000 | 200 to 1000 | Cc1ccc(Nc2nccc(-c3ccc4[nH]cnc4c3)n2)cc1C [Compound 60, 4-(1H-benzo[d]imidazol-5-yl)-N-(3,4-dimethylphenyl)pyrimidin-2-amine]
14 | < 200 | < 200 | Cc1cccc(Nc2nccc(-c3cnc4nc[nH]c4c3)n2)c1 [Compound 136, 4-(1H-imidazo[4,5-b]pyridin-6-yl)-N-(m-tolyl)pyrimidin-2-amine]
15 | 200 to 1000 | 200 to 1000 | c1cc(-c2ccc3[nH]cnc3c2)nc(Nc2ccc3cn[nH]c3c2)n1 [Compound 268, N-(4-(1H-benzo[d]imidazol-5-yl)pyrimidin-2-yl)-1H-indazol-6-amine]
16 | 200 to 1000 | 200 to 1000 | C#Cc1cccc(Nc2nccc(-c3ccc4[nH]cnc4c3)n2)c1 [Compound 93, 4-(1H-benzo[d]imidazol-5-yl)-N-(3-ethynylphenyl)pyrimidin-2-amine]
17 | < 200 | < 200 | c1ccc(-c2cccc(Nc3nccc(-c4ccc5[nH]cnc5c4)n3)c2)cc1 [Compound 70, N-([1,1′-biphenyl]-3-yl)-4-(1H-benzo[d]imidazol-5-yl)pyrimidin-2-amine]
18 | < 200 | < 200 | CC(=O)c1cccc(Nc2nccc(-c3ccc4[nH]cnc4c3)n2)c1 [Compound 256, 1-(3-((4-(1H-benzo[d]imidazol-5-yl)pyrimidin-2-yl)amino)phenyl)ethan-1-one]
19 | 10000 to 100000 | 10000 to 100000 | COc1cccc(-c2ccnc(N(C)c3ccccc3)n2)n1 [Compound 227, 4-(6-methoxypyridin-2-yl)-N-methyl-N-phenylpyrimidin-2-amine]
20 | 10000 to 100000 | 10000 to 100000 | COc1cc(-c2ccnc(Nc3ccncn3)n2)ccn1 [Compound 177, 4-(2-methoxypyridin-4-yl)-N-(pyrimidin-4-yl)pyrimidin-2-amine]
21 | 1000 to 10000 | 1000 to 10000 | Oc1ccnc(-c2ccnc(Nc3ccccc3)n2)c1 [Compound 183, 2-(2-(phenylamino)pyrimidin-4-yl)pyridin-4-ol]

Row | IC50 [1] [nM] | IC50 [2] [nM] | SMILES
22 | < 200 | < 200 | Cc1cc(F)cc(Nc2nccc(-c3ccc4[nH]cnc4c3)n2)c1 [Compound 13, 4-(1H-benzo[d]imidazol-5-yl)-N-(3-fluoro-5-methylphenyl)pyrimidin-2-amine]
23 | 10000 to 100000 | 10000 to 100000 | CN(c1ccccc1)c1nccc(-c2ccnc(O)c2)n1 [Compound 221, 4-(2-(methyl(phenyl)amino)pyrimidin-4-yl)pyridin-2-ol]
24 | < 200 | < 200 | O=S(=O)(c1cccc(Nc2nccc(-c3ccc4[nH]cnc4c3)n2)c1)C(F)(F)F [Compound 260, 4-(1H-benzo[d]imidazol-5-yl)-N-(3-((trifluoromethyl)sulfonyl)phenyl)pyrimidin-2-amine]
25 | 1000 to 10000 | 1000 to 10000 | Fc1cccc(Nc2nccc(-c3ccc4[nH]ncc4c3)n2)c1 [Compound 165, N-(3-Fluorophenyl)-4-(1H-indazol-5-yl)pyrimidin-2-amine]
26 | 1000 to 10000 | 1000 to 10000 | COc1cc(-c2ccnc(Nc3cncc(F)c3)n2)ccn1 [Compound 146, N-(5-fluoropyridin-3-yl)-4-(2-methoxypyridin-4-yl)pyrimidin-2-amine]
27 | 200 to 1000 | 200 to 1000 | Oc1ncc(-c2ccnc(Nc3cccc(F)c3)n2)s1 [Compound 181, 5-(2-((3-fluorophenyl)amino)pyrimidin-4-yl)thiazol-2-ol]
28 | 200 to 1000 | 200 to 1000 | CC(C)(C)NS(=O)(=O)c1cccc(Nc2nccc(-c3ccc4[nH]cnc4c3)n2)c1 [Compound 32, 3-((4-(1H-benzo[d]imidazol-5-yl)pyrimidin-2-yl)amino)-N-(tert-butyl)benzenesulfonamide]
29 | 200 to 1000 | 200 to 1000 | CNC(=O)c1cccc(Nc2nccc(-c3ccc4[nH]cnc4c3)n2)c1 [Compound 42, 3-((4-(1H-benzo[d]imidazol-5-yl)pyrimidin-2-yl)amino)-N-methylbenzamide]
30 | 10000 to 100000 | 10000 to 100000 | COc1ccc(-c2ccnc(Nc3cccc(F)c3)n2)cn1 [Compound 214, N-(3-fluorophenyl)-4-(6-methoxypyridin-3-yl)pyrimidin-2-amine]
31 | 200 to 1000 | 200 to 1000 | FC(F)(F)c1cccc(Nc2nccc(-c3ccc4nccn4c3)n2)c1 [Compound 127, 4-(Imidazo[1,2-a]pyridin-6-yl)-N-(3-(trifluoromethyl)phenyl)pyrimidin-2-amine]
32 | 200 to 1000 | 200 to 1000 | CC(C)(C)n1cc(Nc2nccc(-c3ccc4nc[nH]c4c3)n2)cn1 [Compound 276, 4-(1H-benzo[d]imidazol-6-yl)-N-(1-(tert-butyl)-1H-pyrazol-4-yl)pyrimidin-2-amine]
33 | 200 to 1000 | 200 to 1000 | O=S(=O)(Nc1ccccc1F)c1cccc(Nc2nccc(-c3ccc4[nH]cnc4c3)n2)c1 [Compound 12, 3-((4-(1H-benzo[d]imidazol-5-yl)pyrimidin-2-yl)amino)-N-(2-fluorophenyl)benzenesulfonamide]
34 | 10000 to 100000 | 10000 to 100000 | Oc1cc(-c2ccnc(Nc3ncccn3)n2)ccn1 [Compound 184, 4-(2-(pyrimidin-2-ylamino)pyrimidin-4-yl)pyridin-2-ol]
35 | 1000 to 10000 | 1000 to 10000 | Fc1cncc(Nc2nccc(-c3ccc4[nH]cnc4c3)n2)c1 [Compound 83, 4-(1H-benzo[d]imidazol-5-yl)-N-(5-fluoropyridin-3-yl)pyrimidin-2-amine]
36 | < 200 | < 200 | c1cncc(-c2cccc(Nc3nccc(-c4ccc5[nH]cnc5c4)n3)c2)c1 [Compound 45, 4-(1H-benzo[d]imidazol-5-yl)-N-(3-(pyridin-3-yl)phenyl)pyrimidin-2-amine]
37 | 1000 to 10000 | 1000 to 10000 | c1cc(Nc2nccc(-c3ccc4[nH]cnc4c3)n2)cc(N2CCNCC2)c1 [Compound 92, 4-(1H-benzo[d]imidazol-5-yl)-N-(3-(piperazin-1-yl)phenyl)pyrimidin-2-amine]
38 | 200 to 1000 | 200 to 1000 | Clc1ccc(Nc2nccc(-c3ccc4[nH]cnc4c3)n2)cc1 [Compound 86, 4-(1H-benzo[d]imidazol-5-yl)-N-(4-chlorophenyl)pyrimidin-2-amine]
39 | 1000 to 10000 | 1000 to 10000 | Oc1ccc(-c2ccnc(Nc3cccc(F)c3)n2)cn1 [Compound 213, 5-(2-((3-fluorophenyl)amino)pyrimidin-4-yl)pyridin-2-ol]
40 | < 200 | < 200 | CNS(=O)(=O)c1cccc(Nc2nccc(-c3ccc4[nH]cnc4c3)n2)c1 [Compound 25, 3-((4-(1H-benzo[d]imidazol-5-yl)pyrimidin-2-yl)amino)-N-methylbenzenesulfonamide]
41 | 1000 to 10000 | 1000 to 10000 | Fc1cccc(Nc2nccc(-c3ccn4nccc4n3)n2)c1 [Compound 270, N-(3-fluorophenyl)-4-(pyrazolo[1,5-a]pyrimidin-5-yl)pyrimidin-2-amine]
42 | 10000 to 100000 | 10000 to 100000 | Oc1cccc(Nc2nccc(-c3ccc4[nH]cnc4c3)n2)n1 [Compound 22, 6-((4-(1H-benzo[d]imidazol-5-yl)pyrimidin-2-yl)amino)pyridin-2-ol]
